Laboratory results from patent publication US10294202B2, “Pyrrolidinones as herbicides” (FMC Corporation, priority 2013, dated 2019).

Columns and labels:
[1] = system: morningglory; test: Test E preemergence herbicide test; format: in vivo, Ipomoea coccinea; design: key: 0 = no effect, 100 = complete control
From the text: (§1) Seeds of plant species selected from corn (Zea mays), soybean (Glycine max), velvetleaf (Abutilon theophrasti), lambsquarters (Chenopodium album), wild poinsettia (Euphorbia heterophylla), pigweed, palmer (palmer pigweed, Amaranthus palmeri), waterhemp (common waterhemp, Amaranthus rudis), surinam grass (Brachiaria decumbens), crabgrass, large (large crabgrass, Digitaria sanguinalis), crabgrass, Brazil (Brazilian crabgrass, Digitaria horizontalis), panicum, fall (fall panicum, Panicum dichotomiflorum), foxtail, giant (giant foxtail, Setaria faberii), foxtail, green (green foxtail, Setaria viridis), goosegrass (Eleusine indica), johnsongrass (Sorghum halepense), ragweed (common ragweed, Ambrosia elatior), barnyardgrass (Echinochloa crus-galli), sandbur (southern sandbur, Cenchrus echinatus), arrowleaf […] rhombifolia), ryegrass, Italian (Italian ryegrass, Lolium multiflorum), dayflower, VA (Virginia dayflower, Commelina virginica), field bindweed (Convolvulus arvensis), morningglory (Ipomoea coccinea), nightshade (eastern black nightshade, Solanum ptycanthum), kochia (Kochia scoparia), nutsedge, yellow (yellow nutsedge, Cyperus esculentus), cocklebur (common cocklebur, Xanthium strumarium), smartweed (ladysthumb smartweed, Polygonum Persicaria) and beggarticks (hairy beggarticks, Bidens pilosa), were planted into a silt loam soil and treated preemergence with test chemicals formulated in a non-phytotoxic solvent mixture which included a surfactant. Treated plants and controls were maintained in a greenhouse for 21 days, after which time all species were compared to controls and visually evaluated. Plant response ratings, summarized in Table E, are based on a scale of 0 to 100 where 0 is no effect and 100 is complete control. A dash (-) response means no test result.

[2] = system: canarygrass; test: Test D pre-/postemergence herbicide test; format: in vivo, Phalaris minor; details: for Plant response rating: Canarygrass, scale 0 to 100; for Plant response rating, Canarygrass: scale 0 to 100 (0 no effect, 100 complete control)
From the text: (§2) Seeds of plant species selected from bluegrass (annual bluegrass, Poa annua), blackgrass (Alopecurus myosuroides), canarygrass (littleseed canarygrass, Phalaris minor), chickweed (common chickweed, Stellaria media), galium (catchweed bedstraw, Galium aparine), bromegrass, downy (downy bromegrass, Bromus tectorum), field poppy (Papaver rhoeas), field violet (Viola arvensis), foxtail, green (green foxtail, Setaria viridis), deadnettle (henbit deadnettle, Lamium amplexicaule), ryegrass, Italian (Italian ryegrass, Lolium multiflorum), kochia (Kochia scoparia), lambsquarters (Chenopodium album), oilseed rape (Brassica napus), pigweed (Amaranthus retroflexus), chamomile (scentless chamomile, Matricaria inodora), Russian thistle (Salsola kali), speedwell (bird's-eye speedwell, Veronica persica), barley, spring (spring barley, Hordeum vulgare), wheat, spring (spring wheat, Triticum aestivum), buckwheat, wild (wild buckwheat, Polygonum convolvulus), mustard, wild (wild mustard, Sinapis arvensis), oat, wild (wild oat, Avena fatua), radish, wild (wild radish, Raphanus raphanistrum), […]), barley, winter (winter barley, Hordeum vulgare), and wheat, winter (winter wheat, Triticum aestivum) were planted into a silt loam soil and treated preemergence with test chemicals formulated in a non-phytotoxic solvent mixture which included a surfactant. At the same time, these species were planted in pots containing Redi-Earth® planting medium (Scotts Company, 14111 Scottslawn Road, Marysville, Ohio 43041) comprising spaghnum peat moss, vermiculite, wetting agent and starter nutrients and treated with postemergence applications of the test chemicals formulated in the same manner. Plants ranged in height from 2 to 18 cm (1- to 4-leaf stage). Treated plants and controls were maintained in a controlled growth environment for 7 to 21 days after which time all species were compared to controls and visually evaluated. Plant response ratings, summarized in Table D, are based on a scale of 0 to 100 where 0 is no effect and 100 is complete control. A dash (-) response means no test result.

[3] = system: arrowleaf sida; test: Test E preemergence herbicide test; format: in vivo, Sida rhombifolia; design: key: 0 = no effect, 100 = complete control
From the text: as §1

[4] = system: kochia; test: Test D pre-/postemergence herbicide test; format: in vivo, Kochia scoparia; details: for Plant response rating: Kochia, scale 0 to 100; for Plant response rating, Kochia: scale 0 to 100 (0 no effect, 100 complete control)
From the text: as §2

[5] = system: bermudagrass; test: Test C pre-/postemergence herbicide test; format: in vivo, Cynodon dactylon
From the text: (§3) Seeds of plant species selected from blackgrass (Alopecurus myosuroides), ryegrass, Italian (Italian ryegrass, Lolium multiflorum), wheat (winter wheat, Triticum aestivum), galium (catchweed bedstraw, Galium aparine), corn (Zea mays), crabgrass, large (large crabgrass, Digitaria sanguinalis), foxtail, giant (giant foxtail, Setaria faberii), johnsongrass (Sorghum halepense), lambsquarters (Chenopodium album), morningglory (Ipomoea coccinea), nutsedge, yellow (yellow nutsedge, Cyperus esculentus), pigweed (Amaranthus retroflexus), ragweed (common ragweed, Ambrosia elatior), soybean (Glycine max), barnyardgrass (Echinochloa crus-galli), oilseed rape (Brassica napus), waterhemp (common waterhemp, Amaranthus rudis), kochia (Kochia scoparia), oat, wild (wild oat, Avena fatua), surinam grass (Brachiaria decumbens), foxtail, green (green foxtail, Setaria viridis), goosegrass (Eleusine indica), bromegrass, downy (downy bromegrass, Bromus tectorum), nightshade (eastern black nightshade, Solanum ptycanthum), cocklebur (common cocklebur, Xanthium strumarium), cupgrass, woolly (woolly cupgrass, Eriochloa villosa), bermudagrass (Cynodon dactylon), sunflower, (common oilseed sunflower, Helianthus annuus), Russian thistle (Salsola kali) and velvetleaf (Abutilon theophrasti) were planted into a blend of loam soil and sand and treated preemergence with test chemicals formulated in a non-phytotoxic solvent mixture which included a surfactant. At the same time, plants selected from these crop and weed species and also barley (winter barley, Hordeum vulgare), […]), chickweed (common chickweed, Stellaria media), deadnettle (henbit deadnettle, Lamium amplexicaule), and canarygrass (littleseed canarygrass, Phalaris minor) were planted in pots containing Redi-Earth® planting medium (Scotts Company, 14111 Scottslawn Road, Marysville, Ohio 43041) comprising spaghnum peat moss, vermiculite, wetting agent and starter nutrients and treated with postemergence applications of test chemicals formulated in the same manner. Plants ranged in height from 2 to 18 cm (1- to 4-leaf stage) for postemergence treatments. Treated plants and controls were maintained in a greenhouse for 13 to 15 days, after which time all species were compared to controls and visually evaluated. Plant response ratings, summarized in Table C, are based on a scale of 0 to 100 where 0 is no effect and 100 is complete control. A dash (-) response means no test result.

[6] = system: cupgrass, woolly; test: Test C pre-/postemergence herbicide test; format: in vivo, Eriochloa villosa
From the text: as §3

[7] = Postemergence, 31 g ai/ha, scale 0 (no effect) to 100 (complete control)
[8] = Postemergence, 62 g ai/ha, scale 0 to 100 (0 no effect, 100 complete control)
[9] = Postemergence, 125 g ai/ha, scale 0 to 100 (0 no effect, 100 complete control)
[10] = Postemergence, 250 g ai/ha, scale 0 to 100 (0 no effect, 100 complete control)
[11] = Preemergence, 62 g ai/ha, scale 0 to 100
[12] = Preemergence, 125 g ai/ha, scale 0 to 100 (0 no effect, 100 complete control)
[13] = Preemergence, 31 g ai/ha, scale 0 to 100 (0 no effect, 100 complete control)
[14] = Preemergence, 250 g ai/ha, scale 0 to 100 (0 no effect, 100 complete control)

In the case of O=C1NCC(c2ccc(C(F)(F)F)cc2)C1C(=O)Nc1cccc(F)c1F (racemic) [Compound 202], the “Plant response rating, Morningglory” value ([1]; 31 g ai/ha) is reported as 0, the “Plant response rating, Morningglory” value ([1]; 62 g ai/ha) is reported as 0 and the “Plant response rating, Morningglory” value ([1]; 125 g ai/ha) is reported as 0. The “Plant response rating, Morningglory” value ([1]; 250 g ai/ha) was 30, the Plant response rating ([2]; Postemergence, 31 g ai/ha) was 0 and the Plant response rating ([2]; Postemergence, 62 g ai/ha) was 0. The Plant response rating ([2]; Postemergence, 125 g ai/ha) was 0, the Plant response rating ([2]; Postemergence, 250 g ai/ha) was 0 and the “Plant response rating, Canarygrass” value ([2]; Preemergence, 62 g ai/ha) was 10. For the same molecule, the “Plant response rating, Canarygrass” value ([2]; Preemergence, 31 g ai/ha) was 5, the Plant response rating ([2]; Preemergence, 125 g ai/ha) was 60 and the Plant response rating ([2]; Preemergence, 250 g ai/ha) was 75. For the same molecule, the “Plant response rating, Arrowleaf Sida” value ([3]; 31 g ai/ha) was 0, the “Plant response rating, Arrowleaf Sida” value ([3]; 62 g ai/ha) was 30 and the “Plant response rating, Arrowleaf Sida” value ([3]; 125 g ai/ha) was 70. The “Plant response rating, Arrowleaf Sida” value ([3]; 250 g ai/ha) was 80, the Plant response rating ([4]; Postemergence, 31 g ai/ha) was 70 and the Plant response rating ([4]; Postemergence, 62 g ai/ha) was 70. For the same molecule, the Plant response rating ([4]; Postemergence, 125 g ai/ha) was 75, the Plant response rating ([4]; Postemergence, 250 g ai/ha) was 75 and the “Plant response rating, Kochia” value ([4]; Preemergence, 62 g ai/ha) was 85. The “Plant response rating, Kochia” value ([4]; Preemergence, 31 g ai/ha) was 85, the Plant response rating ([4]; Preemergence, 125 g ai/ha) was 85 and the Plant response rating ([4]; Preemergence, 250 g ai/ha) was 85.
With O=C1NCC(c2ccc(OC(F)F)cc2)C1C(=O)Nc1cccc(F)c1F (racemic) [Compound 350] the “Plant response rating, Morningglory” value ([1]; 31 g ai/ha) was 0, the “Plant response rating, Morningglory” value ([1]; 62 g ai/ha) was 0 and the “Plant response rating, Morningglory” value ([1]; 125 g ai/ha) was 0. For the same molecule, the “Plant response rating, Morningglory” value ([1]; 250 g ai/ha) was 0, the “Plant response rating, Arrowleaf Sida” value ([3]; 31 g ai/ha) was 0 and the “Plant response rating, Arrowleaf Sida” value ([3]; 62 g ai/ha) was 0. For the same molecule, the “Plant response rating, Arrowleaf Sida” value ([3]; 125 g ai/ha) was 20 and the “Plant response rating, Arrowleaf Sida” value ([3]; 250 g ai/ha) was 50.
O=C1NCC(c2ccc(F)c(F)c2)C1C(=O)Nc1cccc(F)c1F (stereo not drawn) [Compound 17, N-(2,3-difluorophenyl)-4-(3,4-difluorophenyl)-2-oxo-3-pyrrolidinecarboxamide] was tested, and the “Plant response rating, Bermudagrass” value [5, 7] was 0, the “Plant response rating, Bermudagrass” value [5, 8] was 0 and the “Plant response rating, Bermudagrass” value [5, 9] was 0. For the same molecule, the “Plant response rating, Bermudagrass” value [5, 10] was 0, the “Plant response rating, Bermudagrass” value [5, 11] was 45 and the “Plant response rating, Bermudagrass” value [5, 12] was 85. The “Bermudagrass plant response rating” value [5, 13] was 0, the “Plant response rating, Bermudagrass” value [5, 14] was 90 and the “Plant response rating, Cupgrass, Woolly” value [6, 7] was 0. For the same molecule, the “Plant response rating, Cupgrass, Woolly” value [6, 8] was 0, the “Plant response rating, Cupgrass, Woolly” value [6, 9] was 0 and the “Plant response rating, Cupgrass, Woolly” value [6, 10] was 0. For the same molecule, the “Plant response rating, Cupgrass, Woolly” value [6, 11] was 85, the “Plant response rating, Cupgrass, Woolly” value [6, 12] was 90 and the “Cupgrass, Woolly plant response rating” value [6, 13] was 80. For the same molecule, the “Plant response rating, Cupgrass, Woolly” value [6, 14] was 95, the Plant response rating ([2]; Postemergence, 16 g ai/ha) was 0 and the Plant response rating ([2]; Postemergence, 31 g ai/ha) was 0. The Plant response rating ([2]; Postemergence, 62 g ai/ha) was 0, the Plant response rating ([2]; Postemergence, 125 g ai/ha) was 0 and the Plant response rating ([2]; Postemergence, 250 g ai/ha) was 0. For the same molecule, the “Plant response rating, Arrowleaf Sida” value ([3]; 16 g ai/ha) was 0, the “Plant response rating, Arrowleaf Sida” value ([3]; 31 g ai/ha) was 0 and the “Plant response rating, Arrowleaf Sida” value ([3]; 62 g ai/ha) was 0. For the same molecule, the “Plant response rating, Arrowleaf Sida” value ([3]; 125 g ai/ha) was 0, the “Plant response rating, Arrowleaf Sida” value ([3]; 250 g ai/ha) was 0 and the Plant response rating ([4]; Postemergence, 16 g ai/ha) was 0. The Plant response rating ([4]; Postemergence, 31 g ai/ha) was 0, the Plant response rating ([4]; Postemergence, 62 g ai/ha) was 20 and the Plant response rating ([4]; Postemergence, 125 g ai/ha) was 20. For the same molecule, the Plant response rating ([4]; Postemergence, 250 g ai/ha) was 40.
O=C1NCC(c2ccc(Cl)c(F)c2)C1C(=O)Nc1cccc(F)c1F (stereo not drawn) [Compound 52] was tested, and the “Plant response rating, Bermudagrass” value [5, 7] was 0, the “Plant response rating, Bermudagrass” value [5, 8] was 0 and the “Plant response rating, Bermudagrass” value [5, 9] was 0. For the same molecule, the “Plant response rating, Bermudagrass” value [5, 10] was 10, the “Plant response rating, Bermudagrass” value [5, 11] was 40 and the “Plant response rating, Bermudagrass” value [5, 12] was 40. For the same molecule, the “Bermudagrass plant response rating” value [5, 13] was 0, the “Plant response rating, Bermudagrass” value [5, 14] was 65 and the “Plant response rating, Cupgrass, Woolly” value [6, 7] was 0. For the same molecule, the “Plant response rating, Cupgrass, Woolly” value [6, 8] was 5, the “Plant response rating, Cupgrass, Woolly” value [6, 9] was 5 and the “Plant response rating, Cupgrass, Woolly” value [6, 10] was 10. For the same molecule, the “Plant response rating, Cupgrass, Woolly” value [6, 11] was 70, the “Plant response rating, Cupgrass, Woolly” value [6, 12] was 75 and the “Cupgrass, Woolly plant response rating” value [6, 13] was 40. The “Plant response rating, Cupgrass, Woolly” value [6, 14] was 85, the Plant response rating ([2]; Postemergence, 16 g ai/ha) was 0 and the Plant response rating ([2]; Postemergence, 31 g ai/ha) was 0. It also gave a Plant response rating ([2]; Postemergence, 62 g ai/ha) of 0, a Plant response rating ([2]; Postemergence, 125 g ai/ha) of 0 and a Plant response rating ([2]; Postemergence, 250 g ai/ha) of 0. The “Plant response rating, Canarygrass” value ([2]; Preemergence, 62 g ai/ha) was 0, the “Plant response rating, Canarygrass” value ([2]; Preemergence, 16 g ai/ha) was 0 and the “Plant response rating, Canarygrass” value ([2]; Preemergence, 31 g ai/ha) was 0. For the same molecule, the Plant response rating ([2]; Preemergence, 125 g ai/ha) was 0, the Plant response rating ([2]; Preemergence, 250 g ai/ha) was 0 and the Plant response rating ([4]; Postemergence, 16 g ai/ha) was 0. The Plant response rating ([4]; Postemergence, 31 g ai/ha) was 0, the Plant response rating ([4]; Postemergence, 62 g ai/ha) was 20 and the Plant response rating ([4]; Postemergence, 125 g ai/ha) was 25. The Plant response rating ([4]; Postemergence, 250 g ai/ha) was 35, the “Plant response rating, Kochia” value ([4]; Preemergence, 62 g ai/ha) was 20 and the “Plant response rating, Kochia” value ([4]; Preemergence, 16 g ai/ha) was 0. For the same molecule, the “Plant response rating, Kochia” value ([4]; Preemergence, 31 g ai/ha) was 20, the Plant response rating ([4]; Preemergence, 125 g ai/ha) was 20 and the Plant response rating ([4]; Preemergence, 250 g ai/ha) was 40.
